The source of these data is US7449463B2, “Morpholinyl containing benzimidazoles as inhibitors of respiratory syncytial virus replication” (Tibotec Pharmaceuticals Ltd., priority 2003, dated 2008).

The melting point is the temperature, or range, at which the solid turns liquid. As a reminder, the EC50 is the concentration needed to bring the measured effect to its halfway point. Read a low EC50 as a more potent agent.

Data set [1] relates to Respiratory Syncytial Virus. In words: microbe, parasite or virus in culture. The data set is classed as cell-based. Conditions: human respiratory syncytial virus. A digest of the protocol:
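HeLa cells infected with ~100 TCID50 RSV in Eagle's Basal Medium with 5% FCS, five-fold compound dilutions, 37° C, 5% CO2 for 7 days. Viability by MTT (A540 minus A690); EC50 for protection against cytopathic effect and CC50 from mock-infected wells, SI = CC50/EC50.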

The mark [2] stands for this setting: 168 h, RSV-infected HeLa cells, MTT readout seven days after infection, −log of EC50 in molar units.
The mark [3] stands for this setting: pEC50 (−log of EC50 when expressed in molar units), protection against RSV cytopathology.

Some results are limits rather than exact numbers.

`Cc1cc(C)c2nc(N(CCN3CCOCC3)C3CCNCC3)n(Cc3nc(C)ccc3O)c2c1` [Compound 170, 2-[4,6-dimethyl-2-(2-morpholin-4-ylethyl-piperidin-4-ylamino)-benzoimidazol-1-ylmethyl]-6-methyl-pyridin-3-ol] came in with a melting point of 237 °C. In data set [1] (setting [2]), this compound showed an EC50 of 794 nM.

`Cc1cc(C)cc(N(CCCC(N)=O)Cc2ccc3nc(NCCCN4CCOCC4)n(Cc4cccc5cccnc45)c3c2)c1` [Compound 223, 4-{(3,5-Dimethyl-phenyl)-[2-(3-morpholin-4-yl-propylamino)-3-quinolin-8-ylmethyl-3H-benzoimidazol-5-ylmethyl]-amino}-butyramide] displayed a melting point of 154 °C. Besides, the EC50 in data set [1] (setting [3]) is 3.16 nM.

For `Cc1cc(C)cc(NC(=O)c2ccc3nc(NCCCN4CCOCC4)n(Cc4nc(C)ccc4O)c3c2)c1` [Compound 160], the melting point is 172 °C. Moreover, the EC50 in data set [1] (setting [2]) is over 10000 nM.

`Cc1ccc(I)c(NCc2ccc3nc(NCCCN4CCOCC4)n(Cc4nc(C)ccc4O)c3c2)c1` [Compound 50] registered a melting point of 225 °C. This compound gave an EC50 in data set [1] (setting [2]) of 50.1 nM.

`Cc1ccc(CCCO)c(NCc2ccc3nc(NCCCN4CCOCC4)n(Cc4cccc5c4ncn5C)c3c2)c1` [Compound 218, 3-(4-Methyl-2-{[3-(1-methyl-1H-benzoimidazol-4-ylmethyl)-2-(3-morpholin-4-yl-propylamino)-3H-benzoimidazol-5-ylmethyl]-amino}-phenyl)-propan-1-ol] gave a melting point of 198 °C. In data set [1] (setting [3]), this compound gave an EC50 of 2.51 nM.

`Cc1cc(C)c2nc(NCCCN3CCOCC3)n(Cc3nc(C)ccc3O)c2c1` [Compound 154, 2-[4,6-dimethyl-2-(3-morpholin-4-yl-propylamino)-benzoimidazol-1-yl-methyl]-6-methyl-pyridin-3-ol] had a melting point of 228 °C. In addition, a half-maximal effect in data set [1] (setting [2]) (EC50) was put at 126 nM.

As to `Cc1cc(C)c2nc(NCCCN3CCOC(CC(N)=O)C3)n(Cc3nc(C)ccc3O)c2c1` (stereo not shown) [Compound 191, 2-(4-{3-[1-(3-Hydroxy-6-methyl-pyridin-2-ylmethyl)-4,6-dimethyl-1H-benzoimidazol-2-ylamino]-propyl}-morpholin-2-yl)-acetamide], the melting point turned out to be 148 °C. The EC50 in data set [1] (setting [2]) was 158 nM.

With `Cc1cc(C)cc(NCc2ccc3nc(NCCCN4CC(C)OC(C)C4)n(Cc4nc(C)ccc4O)c3c2)c1` (stereo not shown) [Compound 172, 2-{2-[3-(2,6-dimethyl-morpholin-4-yl)-propylamino]-6-[(3,5-dimethyl-phenylamino)-methyl]-benzoimidazol-1-ylmethyl}-6-methyl-pyridin-3-ol], the melting point came to 192 °C. This compound also gave an EC50 in data set [1] (setting [2]) of 15.8 nM.

In turn, `Cc1cc(C)cc(N(CCCC(=O)O)Cc2ccc3nc(NCCCN4CCOCC4)n(Cc4nc(C)ccc4O)c3c2)c1` [Compound 62, 4-{(3,5-dimethyl-phenyl)-[3-(3-hydroxy-6-methyl-pyridin-2-ylmethyl)-2-(3-morpholin-4-yl-propylamino)-3H-benzoimidazol-5-ylmethyl]-amino}-butyric acid] yielded a melting point of 121 °C. The compound further showed an EC50 in data set [1] (setting [2]) of 0.398 nM.

The compound `Cc1cc(C)cc(N(CCN)Cc2ccc3nc(NCCCN4CCOCC4)n(Cc4nc(C)ccc4O)c3c2)c1` [Compound 66, 2-[6-{[(2-amino-ethyl)-(3,5-dimethyl-phenyl)-amino]-methyl}-2-(3-morpholin-4-yl-propylamino)-benzoimidazol-1-ylmethyl]-6-methyl-pyridin-3-ol] displayed a melting point of 196 °C. Besides, the EC50 in data set [1] (setting [2]) was 1.26 nM.

On to `Cc1ccc(O)c(Cn2c(NCCCN3CCOCC3)nc3ccc(CNc4c(C)cc(CCC#N)cc4C)cc32)n1` [Compound 49, 3-(4-{[3-(3-hydroxy-6-methyl-pyridin-2-ylmethyl)-2-(3-morpholin-4-yl-propylamino)-3H-benzoimidazol-5-ylmethyl]-amino}-3,5-dimethyl-phenyl)-propionitrile], for which the melting point worked out at 114 °C. In data set [1] (setting [2]), this compound gave an EC50 of 39.8 nM.

The compound `Cc1cc(C)cc(NCc2ccc3nc(NC4CCNC(CCN5CCOCC5)C4)n(Cc4nc(C)ccc4O)c3c2)c1` (stereo not shown) [Compound 163, 2-{6-[(3,5-dimethyl-phenylamino)-methyl]-2-[2-(2-morpholin-4-yl-ethyl)-piperidin-4-ylamino]-benzoimidazol-1-ylmethyl}-6-methyl-pyridin-3-ol] showed a melting point of 150 °C. Besides, the EC50 in data set [1] (setting [2]) was 12.6 nM.

Turning to `Cc1ccc(CCCO)c(NCc2ccc3nc(NCCCN4CCOCC4)n(Cc4cc(Br)ccc4O)c3c2)c1` [Compound 201, 4-Bromo-2-[6-{[2-(3-hydroxy-propyl)-5-methyl-phenylamino]-methyl}-2-(3-morpholin-4-yl-propylamino)-benzoimidazol-1-ylmethyl]-phenol], the melting point came out at 134 °C. Besides, in data set [1] (setting [3]), the EC50 is 0.501 nM.

Regarding `Cc1ccc(O)c(Cn2c(NC3CCNC(CCN4CCOCC4)C3)nc3ccc(CCc4ccccc4)cc32)n1` (stereo not shown) [Compound 165, 6-methyl-2-{2-[2-(2-morpholin-4-yl-ethyl)-piperidin-4-ylamino]-6-phenethyl-benzoimidazol-1-ylmethyl}-pyridin-3-ol], the melting point was found to be 159 °C. This compound had an EC50 in data set [1] (setting [2]) of 126 nM.

`Cc1ccc(CCO)c(NCc2ccc3nc(NCCCN4CCOCC4)n(C4CCCc5nc(C)c(C)nc54)c3c2)c1` (stereo not shown) [Compound 193, 2-(2-{[3-(2,3-Dimethyl-5,6,7,8-tetrahydroquinoxalin-5-yl)-2-(3-morpholin-4-yl-propylamino)-3H-benzoimidazol-5-ylmethyl]-amino}-4-methyl-phenyl)-ethanol] yielded a melting point of 162 °C. This compound also gave an EC50 in data set [1] (setting [3]) of 0.501 nM.

As to `CCOC(=O)CCCN(Cc1ccc2nc(NCCCN3CCOCC3)n(Cc3nc(C)ccc3O)c2c1)c1cc(C)cc(C)c1` [Compound 71, 4-{(3,5-dimethyl-phenyl)-[3-(3-hydroxy-6-methyl-pyridin-2-ylmethyl)-2-(3-morpholin-4-yl-propylamino)-3H-benzoimidazol-5-ylmethyl]-amino}-butyric acid ethyl ester], the melting point was 130 °C. In addition, the EC50 in data set [1] (setting [2]) is 2.51 nM.

`Cc1cccc(NC(=O)c2ccc3nc(NCCCN4CCOCC4)n(Cc4nc(C)ccc4O)c3c2)c1` [Compound 159] yielded a melting point of 168 °C. The EC50 in data set [1] (setting [2]) is 20000 nM.

`Cc1ccc(CCO)c(NCc2ccc3nc(NCCCN4CCOCC4)n(Cc4ncccc4O)c3c2)c1` [Compound 192, 2-[6-{[2-(2-Hydroxy-ethyl)-5-methyl-phenylamino]-methyl}-2-(3-morpholin-4-yl-propylamino)-benzoimidazol-1-ylmethyl]-pyridin-3-ol] came in with a melting point of 192 °C. Besides, the response in data set [1] (setting [3]) was half-maximal at 0.501 nM (EC50).

Consider `Cc1cccc(NC(=O)c2ccc3c(c2)nc(NCCCN2CCOCC2)n3Cc2nc(C)ccc2O)c1` [Compound 158], for which the melting point was determined as 170 °C. In data set [1] (setting [2]), the EC50 is over 100000 nM.

In turn, `COc1ccc(C)nc1Cn1c(NCCCN2CCOCC2)nc2ccc(CNc3cc(C)ccc3CCCO)cc21` [Compound 219, 3-(2-{[3-(3-Methoxy-6-methyl-pyridin-2-ylmethyl)-2-(3-morpholin-4-yl-propylamino)-3H-benzoimidazol-5-ylmethyl]-amino}-4-methyl-phenyl)-propan-1-ol] displayed a melting point of 132 °C. For the same compound, the midpoint of the response in data set [1] (setting [3]), the EC50, lay at 2.51 nM.

`Cc1cc(C)c2nc(N(CC(C)N3CCOCC3)C3CCNCC3)n(Cc3nc(C)ccc3O)c2c1` (stereo not shown) [Compound 161, 2-[4,6-dimethyl-2-(2-morpholin-4-ylpropyl-piperidin-4-ylamino)-benzoimidazol-1-ylmethyl]-6-methyl-pyridin-3-ol] had a melting point of 223 °C. Also, the EC50 in data set [1] (setting [2]) was 2.51 nM.

For the compound `Cc1cc(C)cc(N(CCCC(N)=O)Cc2ccc3nc(NCCCN4CCOCC4)n(Cc4cccc5c4ncn5C)c3c2)c1` [Compound 230, 4-{(3,5-Dimethyl-phenyl)-[3-(1-methyl-1H-benzoimidazol-4-ylmethyl)-2-(3-morpholin-4-yl-propylamino)-3H-benzoimidazol-5-ylmethyl]-amino}-butyramide], the melting point amounted to 206 °C. A half-maximal effect in data set [1] (setting [3]) (EC50) was put at 3.98 nM.

`Cc1cc(C)cc(N(CCO)Cc2ccc3nc(NCCCN4CCOCC4)n(Cc4nc(C)c(C)nc4C)c3c2)c1` [Compound 233, 2-{(3,5-Dimethyl-phenyl)-[2-(3-morpholin-4-yl-propylamino)-3-(3,5,6-trimethyl-pyrazin-2-ylmethyl)-3H-benzoimidazol-5-ylmethyl]-amino}-ethanol] returned a melting point of 140 °C. A half-maximal response in data set [1] (setting [3]) (EC50) required 5.01 nM.

For the compound `Cc1cc(C)cc(NCc2ccc3nc(NCC(O)CN4CCOCC4)n(Cc4nc(C)ccc4O)c3c2)c1` (stereo not shown) [Compound 171, 2-[6-[(3,5-dimethyl-phenylamino)-methyl]-2-(2-hydroxy-3-morpholin-4-yl-propyl-amino)-benzoimidazol-1-ylmethyl]-6-methyl-pyridin-3-ol], the melting point was determined as 198 °C. This compound also had an EC50 in data set [1] (setting [2]) of 2.51 nM.

In turn, `Cc1cc(C)cc(N(CCCC(N)=O)Cc2ccc3nc(NCCCN4CCOCC4)n(Cc4nc(C)ccc4O)c3c2)c1` [Compound 59, 2-[6-{[(3,5-dimethyl-phenyl)-(3-aminocarbonyl-propyl)-amino]-methyl}-2-(3-morpholin-4-yl-propylamino)-benzimidazol-1-ylmethyl]-6-methyl-pyridin-3-ol] displayed a melting point of 170 °C. The same compound showed an EC50 in data set [1] (setting [2]) of 0.251 nM.

The compound `Cc1ccc(O)c(Cn2c(NC3CCNC(CCN4CCOCC4)C3)nc3ccc(C=Cc4ccccc4)cc32)n1` (stereo not shown) [Compound 169, 6-methyl-2-{2-[2-(2-morpholin-4-yl-ethyl)-piperidin-4-ylamino]-6-styryl-benzoimidazol-1-ylmethyl}-pyridin-3-ol] gave a melting point of 224 °C. The midpoint of the response in data set [1] (setting [2]), the EC50, lay at 631 nM.
